Reference: PubChem BioAssay (NCI)
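In this assay, cells in 96-well plates receive the compound at five concentrations for 48 hours. Endpoints are linearly interpolated between the surrounding concentrations. At the TGI there is no net growth.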

What was measured:
Experiment in all cases: NCI tumour cell line growth inhibition, 48 h
MDA-MB-435 = tested on: MDA-MB-435
NCI-H226 lung = tested on: NCI-H226 lung
U251 CNS = tested on: U251 CNS
HOP-62 NSCLC = tested on: HOP-62 NSCLC
HCC-2998 colon = tested on: HCC-2998 colon
M14 melanoma = tested on: M14 melanoma
NCI/ADR-RES ovarian = tested on: NCI/ADR-RES ovarian
786-0 renal = tested on: 786-0 renal
HCT-15 colon = tested on: HCT-15 colon
MALME-3M melanoma = tested on: MALME-3M melanoma
CCRF-CEM leukemia = tested on: CCRF-CEM leukemia
RPMI-8226 leukemia = tested on: RPMI-8226 leukemia
T-47D breast = tested on: T-47D breast
OVCAR-4 ovarian = tested on: OVCAR-4 ovarian
SK-MEL-28 melanoma = tested on: SK-MEL-28 melanoma
COLO 205 colon = tested on: COLO 205 colon
MDA-MB-231 breast = tested on: MDA-MB-231 breast
SK-OV-3 ovarian = tested on: SK-OV-3 ovarian

| SMILES | TGI (MDA-MB-435) [µM] | TGI (NCI-H226 lung) [µM] | TGI (U251 CNS) [µM] | TGI (HOP-62 NSCLC) [µM] | TGI (HCC-2998 colon) [µM] | TGI (M14 melanoma) [µM] | TGI (NCI/ADR-RES ovarian) [µM] | TGI (786-0 renal) [µM] | TGI (HCT-15 colon) [µM] | TGI (MALME-3M melanoma) [µM] | TGI (CCRF-CEM leukemia) [µM] | TGI (RPMI-8226 leukemia) [µM] | TGI (T-47D breast) [µM] | TGI (OVCAR-4 ovarian) [µM] | TGI (SK-MEL-28 melanoma) [µM] | TGI (COLO 205 colon) [µM] | TGI (MDA-MB-231 breast) [µM] | TGI (SK-OV-3 ovarian) [µM] |
| --- | --- | --- | --- | --- | --- | --- | --- | --- | --- | --- | --- | --- | --- | --- | --- | --- | --- | --- |
| O=C(c1ccco1)n1c2ccc(Br)cc2c2nc3ccccc3nc21 | > 100 | > 100 | > 100 | 87 | > 100 | > 100 | > 100 | 51 | > 100 | > 100 | > 100 | 54.6 | > 100 | > 100 | > 100 | > 100 | – | – |
| O=C1/C(=C/c2ccc3c(c2)OCO3)CCC1CN1CCOCC1 (configuration not stated) | 40.6 | 33.8 | 14.3 | 25.6 | 17.4 | 15.3 | – | 11.3 | 8.46 | 22.6 | 5.91 | 1.73 | 42.3 | 18.8 | 10.4 | 35.8 | 7.73 | 32.9 |
| C=C(C(=O)O)C1CCC(CC/C=C(\C)CC/C=C(\C)CCC=C(C)C)CO1 (configuration not stated) | 53.7 | 13.1 | 78.6 | 55.6 | – | 25.5 | 81.8 | 28.1 | 31.9 | 63 | > 100 | – | > 100 | > 100 | 29.5 | 27.4 | > 100 | > 100 |
| CC(=O)O[C@@H]1[C@H]2[C@@H](OC(=O)c3ccccc3)[C@@H](C)C[C@]2(O)[C@H](OC(C)=O)[C@@]2(C)[C@@H]3CC(C)(C)C(=O)[C@]3(OC(C)=O)C[C@@]12C | > 25 | > 25 | > 25 | > 25 | > 25 | > 25 | > 25 | > 25 | > 25 | – | > 25 | – | > 25 | > 25 | – | > 25 | > 25 | > 25 |
| C=CC(C)(C)C(=C)C(=O)N(C)c1ccccc1I | > 100 | > 100 | > 100 | > 100 | > 100 | > 100 | > 100 | > 100 | > 100 | – | > 100 | > 100 | > 100 | > 100 | > 100 | > 100 | > 100 | > 100 |
| O=C1C=CC(=O)c2c(NCC3CC3)ccc(NCC3CC3)c21 | 44.8 | – | > 100 | > 100 | > 100 | 56.8 | > 100 | > 100 | > 100 | 49.2 | – | 47.4 | 65.6 | – | 99.1 | 41.4 | > 100 | – |
| CCOP1(=O)C=C(Sc2ccc([N+](=O)[O-])cc2[N+](=O)[O-])C(C)(C)O1 (configuration not stated) | 28.5 | 47.2 | 30.3 | 56.2 | 39.7 | 24.5 | > 76.5 | 23.6 | 36.7 | 31.4 | 16.4 | 39.2 | 32 | 28.9 | 32 | 23.9 | – | 66.2 |
| CCCc1c(O)c(=O)c2c(OC)cc(OC)c3c4c(OC)cc(OC)c5c(=O)c(O)c(CCC)c(c1c23)c54 | 10.4 | 10.9 | 11.3 | 8.11 | 17.1 | 8.65 | 3.55 | 9.59 | 11.6 | – | 0.582 | 1.11 | 5.73 | 14.1 | 19.1 | 8.94 | 7.09 | 2.96 |
| COc1ccc(C(=O)/C=C/c2ccc(OCCSCCCCCCCCCCSCCOc3ccc(/C=C/C(=O)c4ccc(OC)cc4)cc3)cc2)cc1 | > 100 | > 100 | > 100 | > 100 | > 100 | > 100 | > 100 | > 100 | > 100 | – | > 100 | > 100 | > 100 | > 100 | > 100 | > 100 | > 100 | > 100 |
| Cc1cc(C)nc(NC(=S)Nc2ccccc2Cl)c1 | > 100 | > 100 | > 100 | > 100 | – | > 100 | > 100 | > 100 | > 100 | > 100 | > 100 | > 100 | > 100 | > 100 | > 100 | > 100 | – | > 100 |
| c1cc(CSP234N5CCN2CCN3CCN4CC5)ccc1CSP123N4CCN1CCN2CCN3CC4 | > 100 | – | > 100 | > 100 | > 100 | > 100 | > 100 | > 100 | > 100 | – | > 100 | 84.6 | > 100 | > 100 | > 100 | > 100 | > 100 | – |
| CCN1CN(c2ccccc2)C2(CCN(CCCSc3ccc(F)cc3)CC2)C1=O | 27.3 | 33.7 | – | 12.6 | – | 21.6 | 28.2 | 26.6 | 24.9 | 36.1 | 24.6 | 46.8 | 17.2 | – | 31 | 6.48 | 29 | 33.2 |
| O=C(Cn1cc(F)c(=O)[nH]c1=O)C12CC3CC(CC(C3)C1)C2 | > 100 | – | > 100 | > 100 | > 100 | > 100 | > 100 | > 100 | > 100 | > 100 | > 100 | > 100 | > 100 | > 100 | > 100 | > 100 | > 100 | > 100 |
| Cc1nc(-n2[nH]c(C)c(CCO)c2=O)[nH]c(=O)c1CCO | > 100 | > 100 | > 100 | > 100 | > 100 | > 100 | > 100 | > 100 | > 100 | – | > 100 | > 100 | > 100 | > 100 | > 100 | > 100 | > 100 | > 100 |
| CCN(CC)CCC1CCCCN1CC(=O)N1c2ccccc2NC(=O)c2ccccc21 (configuration not stated) | > 100 | > 100 | > 100 | > 100 | > 100 | > 100 | – | > 100 | > 100 | > 100 | > 100 | > 100 | > 100 | > 100 | > 100 | > 100 | > 100 | > 100 |
| O=C1NC(=S)NC(=O)C1C(c1ccc([N+](=O)[O-])cc1)C1C(=O)NC(=S)NC1=O | > 100 | > 100 | > 100 | > 100 | – | > 100 | > 100 | > 100 | > 100 | – | > 100 | > 100 | > 100 | > 100 | > 100 | > 100 | > 100 | – |
| CC1(C)C2CCC(N)(C2)C1N (configuration not stated) | > 100 | > 100 | > 100 | > 100 | > 100 | > 100 | > 100 | > 100 | > 100 | – | > 100 | > 100 | > 100 | > 100 | > 100 | > 100 | – | > 100 |
| COc1cc(/C=C/C(=O)OC2C(O)C3CC(OC(=O)c4cc(OC)c(OC)c(OC)c4)CC2N3C)cc(OC)c1OC (configuration not stated) | > 50 | > 50 | > 50 | > 50 | > 50 | > 50 | > 50 | > 50 | > 50 | – | > 50 | > 50 | 43.7 | > 50 | – | 42.5 | > 50 | > 50 |
| CSc1nc(-c2ccc(C)cc2)c(C#N)c(=O)[nH]1 | > 100 | > 100 | > 100 | > 100 | > 100 | > 100 | > 100 | > 100 | > 100 | – | > 100 | > 100 | > 100 | > 100 | > 100 | > 100 | > 100 | > 100 |
| CC(O)(/C=C/c1ccccc1)P(=O)(O)c1ccccc1 (configuration not stated) | > 100 | > 100 | > 100 | > 100 | > 100 | > 100 | > 100 | > 100 | > 100 | > 100 | – | – | > 100 | > 100 | > 100 | > 100 | – | > 100 |
| CCN(CC)c1ccc(C2SCC(=O)N2c2ccc(NC(=O)c3ccc(N4C(=O)CSC4c4ccc(N(CC)CC)cc4)cc3)cc2)cc1 (configuration not stated) | > 100 | – | > 100 | > 100 | > 100 | > 100 | > 100 | > 100 | > 100 | > 100 | > 100 | – | > 100 | > 100 | > 100 | > 100 | > 100 | > 100 |
| N#CCCSC1SC(=C2SC3=C(SCCS3)S2)SC1SCCC#N (configuration not stated) | > 100 | – | > 100 | > 100 | > 100 | > 100 | > 100 | > 100 | > 100 | – | > 100 | – | > 100 | > 100 | > 100 | > 100 | > 100 | – |
